# pIC50: −log10 of the molar value. Where two headings read alike, the source gives them in different places.
# Key:
# human SGLT2 = molecular target: T1, human SGLT2 (Homo sapiens, UniProt P31639); assay: Inhibitory activity against methyl-α-D-glucopyranoside uptake, CHO cells stably expressing human SGLT2; format: cell-based; details: for hSGLT2 selectivity: matches hSGLT1 IC50 / hSGLT2 IC50 (formula not stated)
# T1 construct: expressed in transfected cells; host or cells: CHO-K1
# T1 sequence (P31639 1-672): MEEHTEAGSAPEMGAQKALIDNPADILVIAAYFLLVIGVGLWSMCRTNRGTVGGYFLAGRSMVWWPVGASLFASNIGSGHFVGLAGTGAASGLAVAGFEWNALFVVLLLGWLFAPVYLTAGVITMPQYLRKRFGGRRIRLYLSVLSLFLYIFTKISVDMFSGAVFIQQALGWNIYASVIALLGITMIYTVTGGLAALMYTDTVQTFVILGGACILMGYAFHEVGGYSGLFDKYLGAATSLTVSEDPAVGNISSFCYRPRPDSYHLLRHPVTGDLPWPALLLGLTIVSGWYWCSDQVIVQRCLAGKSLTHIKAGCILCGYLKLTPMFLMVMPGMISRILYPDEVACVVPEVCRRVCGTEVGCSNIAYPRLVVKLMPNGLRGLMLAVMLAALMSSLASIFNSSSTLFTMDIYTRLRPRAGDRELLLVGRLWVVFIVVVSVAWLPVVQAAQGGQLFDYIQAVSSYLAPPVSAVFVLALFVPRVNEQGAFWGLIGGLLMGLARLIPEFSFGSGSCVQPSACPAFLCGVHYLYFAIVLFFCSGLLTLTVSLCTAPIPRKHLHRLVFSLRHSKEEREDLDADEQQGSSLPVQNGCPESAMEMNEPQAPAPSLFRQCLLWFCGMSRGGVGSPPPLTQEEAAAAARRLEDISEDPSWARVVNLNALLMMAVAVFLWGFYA
# Procedure, shortened: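 CHO-K1 cells stably expressing human SGLT2 were pre-incubated in sodium-free choline buffer (pH 7.4), then exposed 45 min at 37°C to test compound in sodium buffer containing 1 mM [14C]methyl-α-D-glucopyranoside. Sodium-free buffer gave baseline uptake. After washing, cells were lysed with NaOH/SDS.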
# db/db mice = assay: Study for glucose lowering effect in db/db mouse; format: in vivo; details: oral, 0.3 mg/kg, relative to control group; for inhibition in vivo at 0.3 mg/kg: Mus musculus, 6 hours, Table 3-2, read-out: Percent reduction of blood glucose (%) 6 hours after administration; for Percent reduction of blood glucose (%) 24 hours after administration: Table 3-2
# Procedure, shortened: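 Male db/db mice, 9–11 weeks old, were grouped (n=5) by body weight/blood glucose and dosed orally by gavage with compound in 0.5% CMC at 0.3 mg/10 mL or 3 mg/10 mL (10 mL/kg); controls got vehicle. Tail blood glucose was measured by hexokinase method before and serially after dosing, expressed as % reduction versus control.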
# [1] = Table 2-2, read-out: hhSGLT2 IC50 value
# [2] = inhibition of SGLT2, Table 2-1, read-out: IC50 value
pIC50 (human SGLT2; [1]),pIC50 (human SGLT2; [2]),hSGLT2 selectivity (human SGLT2),SMILES,inhibition in vivo at 0.3 mg/kg (db/db mice) [%],Percent reduction of blood glucose (%) 24 hours after administration (db/db mice) [%]
8.96,8.96,323,"OC[C@H]1O[C@]2(OCc3cc(Cl)c(Cc4ccc(CCF)cc4)cc32)[C@H](O)[C@@H](O)[C@@H]1O [Example 8, (1S,3′R,4′S,5′S,6′R)-5-chloro-6-[(4-(2-fluoroethyl)phenyl)methyl]-3′,4′,5′,6′-tetrahydro-6′-(hydroxymethyl)-spiro[isobenzofuran-1(3H),2′-[2H]pyran]-3′,4′,5′-triol]",48,27
8.80,–,83,"CCc1ccc(Cc2cc3c(cc2C)CO[C@]32O[C@H](CO)[C@@H](O)[C@H](O)[C@H]2O)cc1 [Comparative Compound 1, 1,1-anhydro-1-C-[5-(4-ethylphenyl)methyl-2-(hydroxymethyl)-4-methylphenyl]-β-glucopyranose, reference compound]",–,–
8.82,8.82,283,"CCOc1ccc(Cc2cc3c(cc2Cl)CO[C@]32O[C@H](CO)[C@@H](O)[C@H](O)[C@H]2O)cc1 [Example 5, (1S,3′R,4′S,5′S,6′R)-5-chloro-6-[(4-ethoxyphenyl)methyl]-3′,4′,5′,6′-tetrahydro-6′-(hydroxymethyl)-spiro[isobenzofuran-1(3H),2′-[2H]pyran]-3′,4′,5′-triol]",52,25
8.77,8.77,224,"OC[C@H]1O[C@]2(OCc3cc(Cl)c(Cc4ccc5ccccc5c4)cc32)[C@H](O)[C@@H](O)[C@@H]1O [Example 7, (1S,3′R,4′S,5′S,6′R)-5-chloro-3′,4′,5′,6′-tetrahydro-6′-(hydroxymethyl)-6-(2-naphthylmethyl)-spiro[isobenzofuran-1(3H),2′-[2H]pyran]-3′,4′,5′-triol]",54,42
8.70,8.68,341,"Cc1cc2c(cc1Cc1ccc(C(C)C)cc1)[C@]1(OC2)O[C@H](CO)[C@@H](O)[C@H](O)[C@H]1O [Example 21, (1S,3′R,4′S,5′S,6′R)-3′,4′,5′,6′-tetrahydro-6′-(hydroxymethyl)-6-[(4-isopropylphenyl)methyl]-5-methyl-spiro[isobenzofuran-1(3H),2′-[2H]pyran]-3′,4′,5′-triol]",51,33
8.64,8.64,590,"CCCc1ccc(Cc2cc3c(cc2Cl)CO[C@]32O[C@H](CO)[C@@H](O)[C@H](O)[C@H]2O)cc1 [Example 9, (1S,3′R,4′S,5′S,6′R)-5-chloro-3′,4′,5′,6′-tetrahydro-6′-(hydroxymethyl)-6-[(4-propylphenyl)methyl]-spiro[isobenzofuran-1(3H),2′-[2H]pyran]-3′,4′,5′-triol]",48,28
8.77,8.77,596,"CC(C)c1ccc(Cc2cc3c(cc2Cl)CO[C@]32O[C@H](CO)[C@@H](O)[C@H](O)[C@H]2O)cc1 [Example 15, (1S,3′R,4′S,5′S,6′R)-5-chloro-3′,4′,5′,6′-tetrahydro-6′-(hydroxymethyl)-6-[(4-isopropylphenyl)methyl]-spiro[isobenzofuran-1(3H),2′-[2H]pyran]-3′,4′,5′-triol]",50,27
8.89,8.89,155,"CCc1ccc(Cc2cc3c(cc2Cl)CO[C@]32O[C@H](CO)[C@@H](O)[C@H](O)[C@H]2O)cc1 [Example 1, (1S,3′R,4′S,5′S,6′R)-5-chloro-6-[(4-ethylphenyl)methyl]-3′,4′,5′,6′-tetrahydro-6′-(hydroxymethyl)-spiro[isobenzofuran-1(3H),2′-[2H]pyran]-3′,4′,5′-triol]",42,32
